Laboratory results published in patent US20220340597A1, “HEXAHYDRO-1H-PYRAZINO[1,2-A]PYRAZINE COMPOUNDS FOR THE TREATMENT OF AUTOIMMUNE DISEASE” (Hoffmann-La Roche Inc., priority 2019, published 2022).

Experiments:
[1] = biological target: T1, human TLR9 (Homo sapiens, UniProt Q9NR96); experiment: HEK293-Blue-hTLR-9 cells assay; assay type: cell-based; conditions: HEK293-Blue-hTLR9 cells, ODN2006 stimulation, 20 hrs, SEAP reporter; read-out: HEK/hTLR9 IC50
T1 construct: host or cells: HEK293 (HEK-Blue hTLR9)
T1 sequence (Q9NR96 26-1032): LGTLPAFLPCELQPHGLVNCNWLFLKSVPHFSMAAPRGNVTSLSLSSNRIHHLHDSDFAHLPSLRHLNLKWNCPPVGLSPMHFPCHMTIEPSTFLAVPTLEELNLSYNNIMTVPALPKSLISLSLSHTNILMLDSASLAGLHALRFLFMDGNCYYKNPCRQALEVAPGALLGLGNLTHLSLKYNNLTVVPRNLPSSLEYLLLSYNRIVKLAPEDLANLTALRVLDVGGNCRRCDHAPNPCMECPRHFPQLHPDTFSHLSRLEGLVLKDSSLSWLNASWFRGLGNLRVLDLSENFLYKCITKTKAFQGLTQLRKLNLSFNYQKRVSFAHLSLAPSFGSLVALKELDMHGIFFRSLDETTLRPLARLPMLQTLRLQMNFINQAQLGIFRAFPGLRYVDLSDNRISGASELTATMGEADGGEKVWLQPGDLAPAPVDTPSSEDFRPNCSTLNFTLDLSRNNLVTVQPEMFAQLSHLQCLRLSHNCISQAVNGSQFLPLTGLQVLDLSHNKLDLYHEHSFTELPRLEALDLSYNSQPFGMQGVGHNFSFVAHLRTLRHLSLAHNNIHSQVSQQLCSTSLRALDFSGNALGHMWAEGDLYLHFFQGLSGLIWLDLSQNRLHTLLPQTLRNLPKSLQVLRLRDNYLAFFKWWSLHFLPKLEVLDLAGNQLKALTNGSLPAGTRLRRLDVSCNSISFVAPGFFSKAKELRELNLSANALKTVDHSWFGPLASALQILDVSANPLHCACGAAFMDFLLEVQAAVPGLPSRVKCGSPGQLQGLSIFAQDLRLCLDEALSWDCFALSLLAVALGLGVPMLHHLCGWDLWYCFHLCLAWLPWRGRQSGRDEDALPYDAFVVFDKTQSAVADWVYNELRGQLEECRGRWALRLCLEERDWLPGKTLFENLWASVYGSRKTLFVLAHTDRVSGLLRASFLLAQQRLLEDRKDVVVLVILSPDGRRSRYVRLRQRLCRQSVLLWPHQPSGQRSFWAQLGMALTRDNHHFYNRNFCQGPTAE

[2] = biological target: T2, human TLR8 (Homo sapiens, UniProt Q9NR97); experiment: HEK293-Blue-hTLR-8 cells assay
T2 sequence (Q9NR97 27-1041): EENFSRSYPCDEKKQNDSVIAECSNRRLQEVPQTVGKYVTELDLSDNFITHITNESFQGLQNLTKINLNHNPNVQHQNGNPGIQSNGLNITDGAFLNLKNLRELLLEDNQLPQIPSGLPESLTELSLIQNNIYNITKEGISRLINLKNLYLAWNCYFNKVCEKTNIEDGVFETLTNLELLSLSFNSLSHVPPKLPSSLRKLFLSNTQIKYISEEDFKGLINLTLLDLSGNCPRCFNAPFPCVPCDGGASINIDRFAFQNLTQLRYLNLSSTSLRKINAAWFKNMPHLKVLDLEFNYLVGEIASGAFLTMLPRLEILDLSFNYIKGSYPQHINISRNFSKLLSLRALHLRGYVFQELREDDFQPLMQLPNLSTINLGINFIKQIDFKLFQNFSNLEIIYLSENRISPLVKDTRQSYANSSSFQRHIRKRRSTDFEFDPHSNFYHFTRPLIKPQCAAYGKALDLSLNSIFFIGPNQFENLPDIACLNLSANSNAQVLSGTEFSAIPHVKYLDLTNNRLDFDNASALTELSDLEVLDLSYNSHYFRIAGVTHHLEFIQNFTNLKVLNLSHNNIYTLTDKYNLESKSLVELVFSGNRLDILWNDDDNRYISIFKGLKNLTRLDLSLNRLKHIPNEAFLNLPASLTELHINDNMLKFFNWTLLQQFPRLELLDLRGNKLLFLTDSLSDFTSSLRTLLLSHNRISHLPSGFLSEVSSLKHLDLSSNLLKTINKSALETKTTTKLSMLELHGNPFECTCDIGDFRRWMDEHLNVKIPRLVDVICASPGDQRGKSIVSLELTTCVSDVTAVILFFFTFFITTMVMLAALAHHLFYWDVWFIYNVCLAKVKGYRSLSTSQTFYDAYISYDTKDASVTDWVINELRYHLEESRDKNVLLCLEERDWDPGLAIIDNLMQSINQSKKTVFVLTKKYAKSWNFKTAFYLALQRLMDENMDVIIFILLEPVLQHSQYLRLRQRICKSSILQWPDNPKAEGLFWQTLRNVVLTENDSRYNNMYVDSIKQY

Row | Compound | IC50 [1] [nM] | IC50 [2] [nM]
1 | C[C@@H]1CN(c2ccc(C#N)c3ncccc23)C[C@@H]2CN(CCc3ccc(N4CCNCC4)nc3)CCN21 [Example 11, 5-[(4R,9aS)-4-methyl-8-[2-(6-piperazin-1-yl-3-pyridyl)ethyl]-3,4,6,7,9,9a-hexahydro-1H-pyrazino[1,2-a]pyrazin-2-yl]quinoline-8-carbonitrile] | 37 | 21
2 | C[C@@H]1CN(c2ccc(C#N)c3ncccc23)C[C@@H]2CN(c3nccc(N4CC(N)C4)n3)CCN21 [Example 39, 5-[(4R,9aR)-8-[4-(3-aminoazetidin-1-yl)pyrimidin-2-yl]-4-methyl-3,4,6,7,9,9a-hexahydro-1H-pyrazino[1,2-a]pyrazin-2-yl]quinoline-8-carbonitrile] | 95 | 17
3 | [2H]c1ccc2c(N3C[C@@H]4CN(CCc5ccc(N6CC7(CN(C)C7)C6)nc5)CCN4[C@H](C)C3)ccc(C#N)c2n1 [Example 64, 5-[(4R,9aS)-4-methyl-8-[2-[6-(6-methyl-2,6-diazaspiro[3.3]heptan-2-yl)-3-pyridyl]ethyl]-3,4,6,7,9,9a-hexahydro-1H-pyrazino[1,2-a]pyrazin-2-yl]-2-deuterio-quinoline-8-carbonitrile] | 32 | 32
4 | [2H]c1ccc2c(N3C[C@@H]4CN(Cc5ccc(N6CC(C)(N)C6)nc5C)CCN4[C@H](C)C3)ccc(C#N)c2n1 [Example 79, 5-[(4R,9aS)-8-[[6-(3-amino-3-methyl-azetidin-1-yl)-2-methyl-3-pyridyl]methyl]-4-methyl-3,4,6,7,9,9a-hexahydro-1H-pyrazino[1,2-a]pyrazin-2-yl]-2-deuterio-quinoline-8-carbonitrile] | 46 | 6
5 | CO[C@@H]1CN(c2ccc(CCN3CCN4[C@@H](C3)CN(c3ccc(C#N)n5ncc(F)c35)C[C@H]4C)cc2)C[C@H]1N [Example 66, 4-[(4R,9aS)-8-[2-[4-[(3R,4R)-3-amino-4-methoxy-pyrrolidin-1-yl]phenyl]ethyl]-4-methyl-3,4,6,7,9,9a-hexahydro-1H-pyrazino[1,2-a]pyrazin-2-yl]-3-fluoro-pyrazolo[1,5-a]pyridine-7-carbonitrile] | 116 | 39
